Measurements as given in US8946234B2, “Halogen-substituted compounds” (Bayer CropScience AG, priority 2008, dated 2015).

Assays:
[1] = logP by HPLC on a C18 phase inversion column, EEC Directive 79/831 Annex V.A8, method a) (Agilent 1100, 10-95% acetonitrile in 4.25 min); format: physicochemical; details: read-out: logP
How it was run: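 Reversed-phase C18 HPLC (50×4.6 mm, 1.8 micron), 55 °C, 2.0 ml/min, acetonitrile/water with formic acid. Linear gradient 10% to 95% acetonitrile over 4.25 min, then 95% for 1.25 min. logP derived from retention per EEC Directive 79/831 Annex V.A8; MS detection.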

Phaedon cochleariae = assay: Phaedon test (PHAECO spray treatment); format: in vivo; details: foliar, application rate 500 g/ha, sprayed Chinese cabbage leaf discs, mustard beetle larvae, 100% = all larvae killed, read-out: effect in %
Protocol: [table] To produce a suitable active ingredient preparation, part by weight of active ingredient is mixed with the stated amounts of solvents and emulsifier, and the concentrate is diluted to the desired concentration with emulsifier-containing water. Discs of Chinese cabbage leaves (Brassica pekinensis) are sprayed with an active ingredient preparation of the desired concentration and, after drying, populated with larvae of the mustard beetle (Phaedon cochleariae). After the desired time, the effect in % is determined. Here, 100% means that all of the beetle larvae have been killed; 0% means that no beetle larvae have been killed.

[2] = logP by HPLC on a C18 phase inversion column, EEC Directive 79/831 Annex V.A8, method b) (HP1100, 5-95% acetonitrile in 1.70 min); format: physicochemical; details: HPLC phase inversion (reversed-phase) C18 column; HPLC method b), eluent acetonitrile/water with formic acid
How it was run: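 Reversed-phase C18 HPLC (Zorbax Eclipse Plus, 1.8 µm) per EEC Directive 79/831 Annex V.A8. Gradient was 5→95% acetonitrile (0.1% formic acid) against water (0.08% formic acid) over 1.70 min, then held 1.00 min, at 55 °C and 2.0 ml/min. Mass detection used a Micromass ZQ2000.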

[3] = HPLC phase inversion (reversed-phase) C18 column, HPLC method a), eluent acetonitrile/water with formic acid
[4] = HPLC phase inversion (reversed-phase) C18 column, HPLC, method a)

Row | chromatographic logP [1, 3] | chromatographic logP [1, 4] | chromatographic logP [2] | Structure (SMILES) | pest or weed control at 500 g/ha (Phaedon cochleariae) [%]
1 | 3.34 | 3.34 | – | Cn1nc(C(F)(F)C(F)(F)F)c(C(F)(F)F)c1C(=O)Nc1ccc(Cl)c(C(=O)NC2CC2)c1 [Ik-1, N-[4-Chloro-3-(cyclopropylcarbamoyl)phenyl]-1-methyl-3-(pentafluoroethyl)-4-(trifluoromethyl)-1H-pyrazole-5-carboxamide] | ≥ 80
2 | – | – | 3.11 | C#CCNC(=O)c1cc(NC(=O)c2c(C(F)(F)F)c(C(F)(F)C(F)(F)F)nn2C)ccc1Cl [Ik-3, N-[4-Chloro-3-(prop-2-yn-1-ylcarbamoyl)phenyl]-1-methyl-3-(pentafluoroethyl)-4-(trifluoromethyl)-1H-pyrazole-5-carboxamide] | ≥ 80
3 | 3.16 | 3.15 | – | Cn1nc(C(F)(F)C(F)(F)F)c(I)c1C(=O)Nc1ccc(Cl)c(C(=O)NC2CC2)c1 [Ik-4, N-[4-Chloro-3-(cyclopropylcarbamoyl)phenyl]-1-methyl-3-(pentafluoroethyl)-4-iodo-1H-pyrazole-5-carboxamide] | ≥ 80

Further lines, the molecule ahead of its results:

Row | Structure (SMILES) | chromatographic logP [1, 3] | chromatographic logP [1, 4] | chromatographic logP [2] | pest or weed control at 500 g/ha (Phaedon cochleariae) [%]
4 | O=C(NC1CC1)c1cc(NC(=O)c2cnc(Cl)nc2C(F)(F)F)ccc1Cl [Ib-1, 2-chloro-N-[4-chloro-3-(cyclopropylcarbamoyl)phenyl]-4-(trifluoromethyl)pyrimidine-5-carboxamide] | 2.36 | – | – | ≥ 80
5 | O=C(NC1CC1)c1cc(NC(=O)c2cnc(OCC(F)(F)F)nc2C(F)(F)F)ccc1Cl [Ib-2] | 2.76 | – | – | ≥ 80
6 | O=C(NC1CC1)c1cc(NC(=O)c2cnc(C(F)(F)C(F)(F)F)nc2C(F)F)ccc1Cl [Ib-27, N-[4-Chloro-3-(cyclopropylcarbamoyl)phenyl]-4-(difluoromethyl)-2-(pentafluoroethyl)pyrimidine-5-carboxamide] | 2.92 | – | – | ≥ 80
7 | O=C(NC1CC1)c1cc(NC(=O)c2cnc(OCC(F)(F)F)cc2C(F)(F)F)ccc1Cl [Ij-1, N-[4-Chloro-3-(cyclopropylcarbamoyl)phenyl]-6-(2,2,2-trifluoroethoxy)-4-(trifluoromethyl)pyridine-3-carboxamide] | 3.02 | – | – | ≥ 80
8 | C=Cc1c(C(F)(F)C(F)(F)F)nn(C)c1C(=O)Nc1ccc(Cl)c(C(=O)NC2CC2)c1 [Ik-5, N-[4-Chloro-3-(cyclopropylcarbamoyl)phenyl]-1-methyl-3-(pentafluoroethyl)-4-ethenyl-1H-pyrazol-5-carboxamide] | 3.11 | 3.11 | – | ≥ 80
